Assay results as given in publication PMC12190436, “5-Ene-2-arylaminothiazol-4(5H)-ones Induce Apoptosis in Breast Cancer Cells” (Cells, 2025).
Counter-ions that a name gives are not always drawn.

Key:
NCI-H460 = format: cell-based; settings: for Growth %: NCI-H460, 10 μM, one dose, 48 h
HT29 = format: cell-based
MDA-MB-435 = format: cell-based; settings: for Growth %: MDA-MB-435, 10 μM, one dose, 48 h
MCF-7 cells [1] = assay: [3H]-thymidine incorporation assay; format: cell-based; settings: Homo sapiens, 24 h, read-out: [3H]-thymidine incorporation (% of control); for activity at 1 µM: MCF7, 1 µM; for activity at 2.5 µM: MCF7, 2.5 µM; for activity at 5 µM: MCF7, 5 µM
Experimental: To evaluate the effects of synthesized compounds and reference drug on cell proliferation [3H]-thymidine incorporation assay was applied. MCF-7 cells were seeded on 6-well plates as described before. After 24 h of incubation, the cells were treated with different concentrations of novel 4-thiazolidinone derivatives Les-6416, Les-6418 (1, 2.5, 5 µM), and doxorubicin hydrochloride (0.5 and 1 µM) for 24 h at 37 °C. After 24 h, the medium was changed to a fresh one without fetal bovine serum. A total of 0.5 µCi of tritium-labeled thymidine (specific activity: 7 Ci/mmol) was added to cells for 4 h. Afterwards, the cells were washed with 1 mL of 0.05 M Tris-HCl buffer pH 7.4 containing 0.11 M NaCl and […] 5% trichloroacetic acid (TCA). Each well was filled with 1 mL of a 0.1 M NaOH solution with 1% SDS for cell lysis. After 5 min, the cell lysates were transferred to scintillation vials, which were pre-filled beforehand with two milliliters of scintillation cocktail Ultima Gold XR from PerkinElmer (Waltham, MA, USA). The Scintillation Counter 1900 TR, TRI-CARB (Packard, Perkin Elmer, Inc., San Jose, CA, USA) was used to record the results. The radioactivity observed in untreated control cells was taken as 100%. The values of the tested compound were expressed as a percentage of the control value.
To investigate the antiproliferative activity of Les-6416 and Les-6418 on the MCF-7 cell line after 24 h of treatment, the [^3H]-thymidine incorporation assay was applied. Based on the outcome of previous analysis and the structural similarity of the tested compounds, 5, 2.5, and 1 µM concentrations were applied for this research. The obtained results are shown in the graph below (Figure 2). […] Formidable results also were obtained from the reference drug doxorubicin hydrochloride: 26.00 ± 7.07% for 1 µM and 43.50 ± 3.54% for 0.5 µM

MCF-7 cells [2] = assay: Annexin V-FITC/propidium iodide flow cytometry; format: cell-based, human; settings: 24 h; for viability at 5 µM: MCF7, 5 µM
Experimental: The MCF-7 cells were seeded on 6-well plates (1 × 10^5 cells per well) and incubated for 24 h. Afterwards, the cells were washed, and tested compounds (Les-6416, Les-6418, Les-6381, Les-6423, and Les-6424) were added in a concentration of 5 µM. The reference drug doxorubicin hydrochloride was applied in a concentration of 0.5 µM. The cells were incubated with the compounds for 24 h. Afterwards, the cells were washed several times with cold PBS and the cell suspensions were prepared in the binding buffer from the kit at a concentration of 1 × 10^6 cells/mL. A total of 100 µL of suspension was collected from each sample and transferred to the tubes. After that, 5 µL of Annexin V-FITC and 5 µL of propidium iodide were added. After 15 min of incubation at room temperature in a dark environment, the content of the tubes was filled with binding buffer up to 500 µL and assessed by BD FACSCanto II flow cytometer (Becton Dickinson Biosciences, San Jose, CA, USA). A total of 1 × 10^4 events were measured for each sample. The results were investigated by applying FACSDiva software Version 6.1.3. (BD Biosciences Systems, San Jose, CA, USA).
To assess the effects of novel compounds on apoptosis, we utilized flow cytometry analysis with Annexin V-FITC and Propidium Iodide double staining. In this way, we could distinguish between different cell populations based on their state: unstained or alive cells, cells stained with propidium iodide or necrotic cells, cells only stained with FITC-labeled annexin V or early apoptotic cells, and cells stained with both annexin V and propidium iodide or late apoptotic cells.

caspase 8 = assay: FLICA caspase-8 activity, flow cytometry; format: cell-based, human; settings: 5 µM, 24 h, MCF-7
Experimental: To determine the effects of the novel compounds on the caspases-3/7, caspase-8, caspase-9, and caspase-10 activity, the FLICA Caspase-3/7 Assay Kit, FLICA Caspase-8 Assay Kit, FLICA Caspase-9 Assay Kit, and FLICA Caspase-10 Assay Kit were applied (ImmunoChemistry Technologies, Bloomington, MN, USA). MCF-7 cells were seeded on 6-well plates (1 × 10^5 cells per well) and incubated for 24 h. Afterwards, they were treated for 24 h with tested compounds (Les-6416, Les-6418, Les-6381, Les-6423, and Les-6424) in a concentration of 5 µM and the reference drug doxorubicin hydrochloride in a concentration of 0.5 µM. Next, cells were amassed and washed two times with cold PBS, followed by resuspension in an Apoptosis Wash Buffer to a final concentration of 5 × 10^5 cells/mL. Afterwards, 290 µL of the prepared cell suspensions were transferred into tubes, followed by the addition of 10 µL of FLICA solution, prepared immediately before use, to each sample and incubated for an hour at 37 °C. Next, cells were washed two times with 2 mL of Apoptosis Wash Buffer, provided in the kit, centrifuged, and resuspended in 300 µL of the buffer. Prepared samples were assessed by a BD FACSCanto II flow cytometer (Becton Dickinson Biosciences, San Jose, CA, USA). For each sample, 1 × 10^4 events were analyzed. The obtained results were investigated by applying FACSDiva software Version 6.1.3 (BD Biosciences Systems, San Jose, CA, USA).
To further investigate the effects of the newly synthesized compounds on the process of apoptosis we decided to measure their impact on various caspases as evidence of intrinsic (caspase 9) or extrinsic (caspase 8, 10) pathways of programmed cell death by applying flow cytometry analysis after 24 h treatment of MCF-7 breast cancer cells with novel 4-thiazolidinone derivatives and reference drug doxorubicin hydrochloride. […] With 41.28 ± 5.45%, 43.23 ± 2.85%, and 41.90 ± 6.89% of cells with activated caspase 8, 10, and 9, respectively, Les-6416 continued the trend of displaying the most significant effect on the three tested caspases. […]

[3] = Homo sapiens, read-out: Viable cells, cell population

Structure (SMILES) | Growth % (NCI-H460) [%] | Growth % (MDA-MB-435) [%] | activity at 1 µM (MCF-7 cells [1]) [%] | activity at 2.5 µM (MCF-7 cells [1]) [%] | activity at 5 µM (MCF-7 cells [1]) [%] | Early apoptotic cells, cell population (MCF-7 cells [2]; 5 µM) [%] | Late apoptotic cells, cell population (MCF-7 cells [2]; 5 µM) [%] | Necrotic cells, cell population (MCF-7 cells [2]; 5 µM) [%] | viability at 5 µM (MCF-7 cells [2]; [3]) [%] | cells with active caspase 8 (caspase 8) [%] | other results
COc1cc(NC2=NC(=O)C(=Cc3ccc4cc[nH]c4c3)S2)cc(OC)c1OC [Les-6416, 5-((1H-Indol-6-yl)methylene)-2-((3,4,5-trimethoxyphenyl)amino)thiazol-4(5H)-one] | 17.93 | −33.26 | 69 ± 1.41 | 27 ± 5.66 | 21.5 ± 2.12 | 8.23 ± 2.56 | 45.63 ± 10.29 | 0.07 ± 0.06 | 39.8 | 41.28 ± 5.45 | Growth % (HT29; HT29, 10 μM, one dose, 48 h): 7.66%
COc1cc(NC2=NC(=O)C(=Cc3c[nH]c4ccccc34)S2)cc(OC)c1OC [Les-6418, 5-((1H-Indol-3-yl)methylene)-2-((3,4,5-trimethoxyphenyl)amino)thiazol-4(5H)-one] | −77.59 | −77.11 | 95.5 ± 7.78 | 72 ± 12.7 | 48.5 ± 12 | 7.55 ± 1.17 | 44.68 ± 8.18 | 0.13 ± 0.05 | 47.7 | – | GI50 (NCI-H460; Homo sapiens, NCI-H460, 48 h): 2.1 µM; LC50 (50% lethal concentration) (NCI-H460; Homo sapiens, NCI-H460, 48 h): 92 µM; TGI (NCI-H460; NCI-H460, 48 h): 14.3 µM; SI (TGI) (NCI-H460; NCI-H460, MG_MID_60/value): 1.30; TGI (HT29; HT29, 48 h): 10.1 µM; SI (TGI) (HT29; HT29, MG_MID_60/value): 1.84; GI50 (HT29; Homo sapiens, HT-29, HT29, 48 h): 0.923 µM; CC50 (HT29; Homo sapiens, HT-29, HT29, 48 h, read-out: LC50 (the source's name)): 47.6 µM; GI50 (MDA-MB-435; Homo sapiens, MDA-MB-435, 48 h): 0.28 µM; LC50 (MDA-MB-435; Homo sapiens, MDA-MB-435, 48 h): 14.2 µM; TGI (MDA-MB-435; MDA-MB-435, 48 h): 0.940 µM; SI (TGI) (MDA-MB-435; MDA-MB-435, MG_MID_60/value): 19.8
COc1cc(NC2=NC(=O)C(=Cc3cccs3)S2)cc(OC)c1OC [Les-6423, 5-(Thiophen-2-ylmethylene)-2-((3,4,5-trimethoxyphenyl)amino)thiazol-4(5H)-one] | – | – | – | – | – | – | – | – | 90 | 18.13 ± 1.96 | proapoptotic effect in comparison to the control (MCF-7 cells [2]; 5 µM): did not have any statistically significant results
COc1ccc(C=C2SC(Nc3cc(OC)c(OC)c(OC)c3)=NC2=O)cc1 [Les-6381, 5-(4-Methoxybenzylidene)-2-((3,4,5-trimethoxyphenyl)amino)thiazol-4(5H)-one] | – | – | – | – | – | – | – | – | 49.6 | 19.8 ± 3.69 | –
COc1cccc2c1C(=O)c1c(O)c3c(c(O)c1C2=O)C[C@@](O)(C(=O)CO)C[C@@H]3O[C@H]1C[C@H](N)[C@H](O)[C@H](C)O1 [DOX, Doxorubicin hydrochloride, reference compound] | – | – | 26 ± 7.07 | – | – | – | – | – | – | – | activity at 0.5 µM (MCF-7 cells [1]; MCF7, 0.5 µM): 43.5 ± 3.54%; Necrotic cells, cell population (MCF-7 cells [2]; 0.5 µM): 27.23 ± 3.76%; viability at 0.5 µM (MCF-7 cells [2]; Homo sapiens, MCF7, 0.5 µM, read-out: Viable cells, cell population): 59.6%
